In one assay the test system is SK-MEL-3 cells. Put plainly: SK-MEL-3 cell proliferation assay. To be noted: Homo sapiens, SK-MEL3; SK-MEL-3 cells, 72 hours, CellTiter-Glo; read-out: SK-MEL-3 IC50. The class given is cell-based.
A further assay concerns A2058 cells. Briefly: A2058 cell proliferation assay. The format is cell-based. To be noted: Homo sapiens, 96 hours, CellTiter-Glo. For orientation: In ATP-based viability assays light output follows the ATP content of the culture.

What is called IC50 is the midpoint of a concentration-inhibition curve.

`O=c1[nH]c2cc3cc(-c4ccc(C(F)(F)F)nc4Cl)ccc3nc2[nH]1` [Example 17, 7-(2-chloro-6-(trifluoromethyl)pyridin-3-yl)-1,3-dihydro-2H-imidazo[4,5-b]quinolin-2-one]: the IC50 in the assay on SK-MEL-3 cells was 1.1 nM; in the assay with A2058 cells it was 11 nM.
Regarding `O=c1[nH]c2cc3c(nc2[nH]1)CCN(c1ccc(F)cc1Cl)C3` [Example 21, 7-(2-chloro-4-fluorophenyl)-1,3,5,6,7,8-hexahydro-2H-imidazo[4,5-b][1,6]naphthyridin-2-one], the IC50 in the assay on SK-MEL-3 cells came out at 4.5 nM; with A2058 cells, 38.4 nM.
Turning to `N#Cc1ccc(N2CCc3nc4[nH]c(=O)[nH]c4cc3C2)c(Cl)c1` [Example 22, 7-(2-chloro-4-cyanophenyl)-1,3,5,6,7,8-hexahydro-2H-imidazo[4,5-b][1,6]naphthyridin-2-one], the figures for the IC50 with SK-MEL-3 cells and with A2058 cells were 1.6 nM and 11.9 nM, respectively.
Turning to `O=c1[nH]c2cc3c(nc2[nH]1)CCN(c1ncc(F)cc1Cl)C3` [Example 23, 7-(3-chloro-5-fluoropyridin-2-yl)-1,3,6,7,8-hexahydro-2H-imidazo[4,5-b][1,6]naphthyridin-2-one], the results for the IC50 with SK-MEL-3 cells and in the assay on A2058 cells were 4.4 nM and 44.8 nM, respectively.
`O=c1[nH]c2cc3c(Cl)c(-c4ccc(F)cn4)ccc3nc2[nH]1` [Example 24, 8-chloro-7-(5-fluoropyridin-2-yl)-1,3-dihydro-2H-imidazo[4,5-b]quinolin-2-one]: the IC50 with SK-MEL-3 cells is 0.9 nM; in the assay on A2058 cells, 2.7 nM.
`[2H]C([2H])([2H])Oc1ccc(-c2ccc3nc4[nH]c(=O)[nH]c4cc3c2)c(Cl)n1` [Example 27, 7-(2-chloro-6-(methoxy-d3)pyridin-3-yl)-1,3-dihydro-2H-imidazo[4,5-b]quinolin-2-one]: the IC50 with SK-MEL-3 cells worked out at 3.1 nM; in the assay on A2058 cells, 20.2 nM.
For `[2H]C([2H])([2H])Oc1nc(Cl)ccc1-c1ccc2nc3[nH]c(=O)[nH]c3cc2c1` [Example 28, 7-(6-chloro-2-(methoxy-d3)pyridin-3-yl)-1,3-dihydro-2H-imidazo[4,5-b]quinolin-2-one], the 50% inhibitory concentration (IC50) in the assay on SK-MEL-3 cells amounted to 1.1 nM; with A2058 cells it was 7.9 nM.
Turning to `O=c1[nH]c2cc3cc(-c4cnn(C(F)F)c4C(F)(F)F)ccc3nc2[nH]1` [Example 30, 7-(1-(difluoromethyl)-5-(trifluoromethyl)-1H-pyrazol-4-yl)-1,3-dihydro-2H-imidazo[4,5-b]quinolin-2-one], the IC50 is 0.1 nM in the assay with SK-MEL-3 cells and 0.9 nM in the assay on A2058 cells.
In the case of `O=c1[nH]c2cc3cc(-c4cnn(C(F)F)c4Br)ccc3nc2[nH]1` [Example 32, 7-(5-bromo-1-(difluoromethyl)-1H-pyrazol-4-yl)-1,3-dihydro-2H-imidazo[4,5-b]quinolin-2-one], the figures for the IC50 with SK-MEL-3 cells and in the assay with A2058 cells were 0.05 nM and 0.3 nM, respectively.
`O=c1[nH]c2cc3cc(-c4onc(C(F)F)c4Cl)ccc3nc2[nH]1` [Example 34, 7-(4-chloro-3-(difluoromethyl)isoxazol-5-yl)-1,3-dihydro-2H-imidazo[4,5-b]quinolin-2-one]: the IC50 was 0.09 nM in the assay with SK-MEL-3 cells and 0.19 nM in the assay with A2058 cells.
On to `O=c1[nH]c2cc3cc(-c4ccc(C(F)F)nc4Cl)ccc3nc2[nH]1` [Example 35, 7-(2-chloro-6-(difluoromethyl)pyridin-3-yl)-1,3-dihydro-2H-imidazo[4,5-b]quinolin-2-one], for which the IC50 in the assay on SK-MEL-3 cells stood at 0.6 nM; in the assay with A2058 cells, 5.2 nM.
On to `O=c1[nH]c2cc3cc(-c4ccc(C(F)F)cc4Cl)ccc3nc2[nH]1` [Example 36, 7-(2-chloro-4-(difluoromethyl)phenyl)-1,3-dihydro-2H-imidazo[4,5-b]quinolin-2-one], for which the IC50 is 0.9 nM with SK-MEL-3 cells and 5.2 nM in the assay with A2058 cells.
As for `Cc1c(-c2ccc3nc4[nH]c(=O)[nH]c4cc3c2)cnn1C(F)F` [Example 44, 7-(1-(difluoromethyl)-5-methyl-1H-pyrazol-4-yl)-1,3-dihydro-2H-imidazo[4,5-b]quinolin-2-one], the IC50 in the assay with SK-MEL-3 cells turned out to be 0.07 nM; in the assay with A2058 cells, 0.17 nM.
Consider `O=c1[nH]c2cc3c(nc2[nH]1)CCN(c1ccc(C(F)(F)F)nc1Cl)C3` [Example 48, 7-(2-chloro-6-(trifluoromethyl)pyridin-3-yl)-1,3,5,6,7,8-hexahydro-2H-imidazo[4,5-b][1,6]naphthyridin-2-one], for which the figures for the IC50 with SK-MEL-3 cells and with A2058 cells were 5.2 nM and 74.6 nM, respectively.
As to `O=c1[nH]c2cc3c(nc2[nH]1)CCN(c1cnn(C(F)F)c1Cl)C3` [Example 50, 7-(5-chloro-1-(difluoromethyl)-1H-pyrazol-4-yl)-1,3,5,6,7,8-hexahydro-2H-imidazo[4,5-b][1,6]naphthyridin-2-one], the IC50 was found to be 1.2 nM in the assay on SK-MEL-3 cells and 7.5 nM in the assay with A2058 cells.
For the molecule `O=c1[nH]c2cc3c(nc2[nH]1)CCN(c1cccc(C(F)(F)F)n1)C3` [Example 58, 7-(6-(trifluoromethyl)pyridin-2-yl)-1,3,5,6,7,8-hexahydro-2H-imidazo[4,5-b][1,6]naphthyridin-2-one], the IC50 came out at 0.3 nM with SK-MEL-3 cells and 1.2 nM with A2058 cells.
For `O=c1[nH]c2cc3c(Cl)c(-c4cnn(C(F)F)c4Cl)ccc3nc2[nH]1` [Example 86, 8-chloro-7-(5-chloro-1-(difluoromethyl)-1H-pyrazol-4-yl)-1,3-dihydro-2H-imidazo[4,5-b]quinolin-2-one] the same measures were 0.09 nM and 0.9 nM.

The record behind these values is US20260265251A1 (priority 2023, published 2026).
